# Laboratory results: a melting point compilation (Tetko et al.; mined from patent text by program, amines drawn as free bases though some values may be those of a salt)
row,SMILES,melting point [°C]
1,CC1=C(C(=O)OCOC(=O)C(C)(C)C)C(C)C(C(=O)OCOC(=O)C(C)(C)C)=C(C)N1,82 to 83
2,CNC(=O)C1(Nc2nc(Nc3cc4c(cc3OC)CCN(CCOC)CC4)ncc2Cl)CC1,211 to 215
3,CC1(O)NC(=O)OC12CCN(Cc1ccccc1)CC2 (stereo not given),162 to 164
4,CCOC(=O)c1ncn(S(=O)(=O)N(C)C)n1,78.5 to 81.5
5,O=C(CCc1c(O)c2ccccc2oc1=O)c1ccccc1,149 to 151
6,CCCCCCCCCCCCCCCCCCOc1cc(OCC(=O)O)cc(C(=O)N(CC(=O)O)CC(=O)O)c1,134 to 136
7,Cn1cc(C(=O)NCCC2CCN(S(=O)(=O)NC(=O)NC3CCCCC3)CC2)c(=O)n(C)c1=O,205 to 207
8,O=C(NCC(F)(F)F)c1ccc(C2=NOC(c3cc(Cl)cc(Cl)c3)(C(F)(F)F)C2)cc1 (stereo not given),94 to 96
9,CS(=O)(=O)ON=C(C#N)C(N)=O,136 to 142
10,CC(C)(C)NC(=O)c1nn(-c2ccc(C(F)(F)F)cc2)c2c1C1CCC2CC1,174 to 176
11,COC(=O)c1cccnc1NC(=O)C(C)CS (stereo not given),50 to 52
12,CC(C)(C)NS(=O)(=O)c1ccccc1C(=O)CF,126
13,O=C(O)C[C@H]1C[C@H](C(=O)O)Nc2cc(Cl)cc(Cl)c21 (relative stereo),229 to 231
14,CCCC(=O)CS(N)(=O)=O,117
15,O=C1CN(Cc2cccc(I)c2)S(=O)(=O)N1,101 to 103
16,CCOC(=O)Cn1c(Br)c(Br)c(C#N)c1Br,140 to 143
17,CCN(C(C)=O)c1cccc(-c2ccc3nncn3n2)c1,122 to 127
18,COCCC(=O)N[C@H]1CC[C@H](CCN2CCN(c3nc(C)cc4occc34)CC2)CC1,158
19,CN1CCN(C(=O)c2cc([N+](=O)[O-])cc3c2OCCO3)CC1,218
20,CCCc1c(OCCCOc2cccc3c2CCCC3)ccc2c1OC(CCC(=O)O)(CCC(=O)N1CCCC1)CC2=O (stereo not given),160 to 164
21,CN1CCN(CC2CCCCN2CC(=O)N2c3ccccc3C(=O)Nc3cccnc32)CC1 (stereo not given),203 to 205

row,SMILES,melting point [°C]
1,CCCCCCCCCCCCCCCc1cc2cccc(C(=O)O)c2[nH]1,93 to 99
2,COCCOCCN1C(=O)C2(COc3cc4c(cc32)OCCO4)c2ccccc21 (stereo not given),90 to 91
3,C=CCc1cc(NC(C)=O)ccc1O,82 to 85
4,CN1c2ccc([N+](=O)[O-])cc2CS1(=O)=O,214 to 216
5,O=[N+]([O-])c1cnn(CC(O)CCl)n1 (stereo not given),38 to 38.5
6,CC(=O)NC[C@H]1CN(c2ccc(N3CCC(n4nccn4)CC3)c(F)c2)C(=O)O1,197
7,CCC1C(C)=NN=C(c2ccccc2C)c2cc(OC)c(OC)cc21 (stereo not given),170 to 171
8,OCc1ccc(C2=CCCCC2)cc1,70 to 71
9,NS(=O)(=O)N1CCC(CCNC(=O)c2cc(Cl)ccn2)CC1,186 to 187
10,O=C1CCCCCCCCCCCCCCCCC1O (stereo not given),31 to 32
11,CC(=O)C(C)N(C(=O)CCl)c1c(C)cccc1C (stereo not given),78 to 82
12,Cc1snc(O)c1C(N)=O,248 to 250
13,COc1cc(C=CC(=O)c2ccc(I)cc2O)cc(OC)c1OC,140 to 141
14,CCOC(=O)C(=NOCCBr)c1csc(NC=O)n1,95 to 98
15,CN(C)c1nc(C(F)(F)F)cc(=O)n1-c1cc(F)c(C#N)cc1F,147
16,CCOC(=O)c1cn(NC)c2c(F)c(F)c(F)cc2c1=O,189
17,CC(C)(C)C1CSC2(CCC(C=C(Br)Br)CC2)SC1 (stereo not given),143
18,CCOC(=O)c1cn(C2CC2)c2c(C)c(N3CCN(Cc4ccccc4)C(C)C3)c(F)c(C)c2c1=O (stereo not given),128 to 129
19,COC1=CC2=CCC3C(C(F)CC4(C)C(=O)CCC34)C2CC1 (stereo not given),173
20,COC(=O)C(CCC(C(=O)OC)c1cc(OC)c(OC)c(OC)c1)c1cc(OC)c(OC)c(OC)c1 (stereo not given),179 to 184

# Continued, values first:
row,melting point [°C],SMILES
1,130,O=C(NCCc1ccccn1)c1ccccc1-c1ccccc1CNS(=O)(=O)c1ccc(F)cc1
2,156,Nc1cccc(-c2cccc(-c3nc(-c4ccc(C(F)(F)F)cc4)cc(C(F)(F)F)n3)c2)c1
3,168 to 182,CCc1nc(N)nc(N)c1CCCc1cc(Cl)c(Cl)cc1Cl
4,147 to 149,C=C(C)CONC(=O)c1nc(-c2ccc(Cl)c(OC)c2F)cc(N)c1Cl
5,78 to 82,CC(C)(C)C(=O)Nc1ccncc1C(=NN)c1ccccc1F
6,210,Nn1ccnc1-c1ccc(Cl)cc1
7,190 to 191,O=C(Cc1c(-c2ccccc2)nn(-c2ccccc2)c1-c1ccccc1)Oc1ccccc1C(=O)O
8,222 to 223,Cc1nc(-c2ccc3c(c2)c2cc(-c4ccc(Cl)cc4Cl)c(=O)n(C)c2n3C)co1
9,64 to 65,CC(=O)c1nnc(-c2ccc3occ(-c4cccc(OC(F)(F)F)c4)c3c2)o1
10,68 to 70,COC(=O)c1ccccc1N(C)C(=O)c1ccc(OC)nc1
11,124 to 125,O=C(C(=O)c1cccc(OCc2ccccc2)c1)c1cc[nH]c1
12,188,CC(C)(C)OC(=O)CCNC1(c2ccccc2Cl)C(=O)Nc2ccc(Cl)cc21 (stereo not given)
13,> 250,COc1cc2ncc(C#N)c(Nc3cc(Cl)c(O)c(Cl)c3)c2cc1OC
14,188 to 189,O=C(O)Cn1cc(Cc2nc3c(F)c(F)cc(F)c3s2)c2cc(Cl)ccc21
15,102 to 105,COc1ccc(Nc2c([N+](=O)[O-])cc([N+](=O)[O-])cc2C(F)(F)F)nc1
16,140 to 143,CCCC(=O)N(C)c1cccc(-c2ccc3nnc(C)n3n2)c1
17,250 to 251,CNC(=O)c1ccc(-c2coc3ccc(-c4nnc(C)o4)cc23)c(Cl)c1
18,260 to 262,Nc1nc2ccccc2c2c1ncn2CC1(O)CCOCC1
19,195,Clc1ccc(Cn2nncc2CN2CCC(c3ccccc3)(c3ccccc3)CC2)cc1
20,165,CCCCc1nc2cc[nH]c(=O)c2n1Cc1ccc(-c2ccccc2C#N)cc1

row,melting point [°C],SMILES
1,103 to 104,OCc1conc1-c1ccc(Cl)c(Cl)c1
2,102 to 104,CCCCCC(CC(=O)Nc1cc(C(N)=O)ccc1C(C)(C)C)c1cc(Br)c(OC)cc1OC (stereo not given)
3,192 to 194,NC1C(=O)N(CC(O)C(F)(F)F)c2ccccc2-c2ccccc21 (stereo not given)
4,174 to 176,Cn1nnnc1Cc1ccc2c(c1)c(C1=CCN(CCN3CCNC3=O)CC1)cn2-c1ccc(F)cc1
5,81 to 84,O=C(O)Cc1cc(Br)cc(Br)c1OCCc1ccccc1
6,239,Cc1nnc(-c2ccc(O)cc2)o1
7,183 to 186,CC(C)CN1C(=O)[C@H](CC(=O)O)O[C@@H](c2ccccc2Cl)c2cc(Cl)ccc21
8,62 to 64,c1ccc(COc2ccc(N3CCN(Cc4nc5ccccc5[nH]4)CC3)nc2)cc1
9,172 to 174,CC(C)(C)OC(=O)Nc1ccc(O)c2ccccc12
10,> 300,Oc1nc2cc(Br)c3ccccc3c2nc1O
11,179 to 181,CCOC(=O)COc1ccc(C(=O)Nc2ccccc2Sc2ccccc2-c2nnn[nH]2)cc1OC
12,80 to 82,O=S(=O)(Nc1ccc2c(OCc3ccc(OC(F)(F)F)cc3)cccc2c1)C(F)(F)F
13,188,FC(F)(F)c1cc(-c2ccc(Cl)c(Cl)c2)nc2c(-c3ccccn3)cnn12
14,221,CCC(C(O)c1ccc(Cl)cc1)n1ncn(-c2ccc(N3CCN(c4nc5ccccc5o4)CC3)cc2)c1=O (stereo not given)
15,127 to 129,Clc1cccc(N2CCN(CCCOc3ccc4scnc4c3)CC2)c1Cl
16,122 to 124,O=C(Nc1ccc(-n2nc(C(F)(F)F)cc2C(F)(F)F)cc1)c1ccc(F)c(F)c1F
17,118 to 119,Cc1ccccc1C(=O)Cc1ccncc1
18,74 to 75,FC(F)(F)c1ccc(Nc2ccccc2C=C(Br)Br)cc1
19,259 to 260,COc1cc2c(cc1OC)C1NC(=O)CCC1=C2c1ccccc1 (stereo not given)
20,146 to 148,CC(C)(C)OC(=O)Nc1ccc(C#Cc2ccccc2)cc1[N+](=O)[O-]

row,melting point [°C],SMILES
1,216 to 217,COC(=O)c1ccc(/C=C/c2nc(-c3ccc4ccccc4c3)oc2C)cc1
2,227 to 228,O=c1c(-c2ccc(O)cc2)coc2cc(O)ccc12
3,194 to 196,C[C@@H](Nc1ncnc2[nH]c(-c3ccc(CNC(=O)CN4CCCCC4)cc3)cc12)c1ccccc1
4,249 to 250,S=c1nc(-c2ccc(-c3ccccc3)cc2)[nH]n1Cc1ccccc1
5,201 to 203,COc1ccc2nc(-c3cc(C)c(OCCN4CCCC4)c(C)c3)[nH]c(=O)c2c1
6,124 to 127,O=C1c2ccccc2C(=O)N1CC#CCSc1nccc(NC(=S)NCC(F)(F)F)n1
7,193 to 194,CS(=O)(=O)c1ccc(N2CCC3(CC2)Nc2cc(Cl)ccc2C(=O)O3)cc1
8,154,O=C(O)C1=Cc2cc(Oc3ccc(C(F)(F)F)cc3)ccc2OC1C(F)(F)F (stereo not given)
9,175 to 176,CCn1ncc2c3onc(-c4ccc(F)cc4)c3cnc21
10,153 to 154,COC(=O)c1ccc(N2C3CCC2CN(CC(=O)N2CC=C(c4cccc5ccsc45)CC2)C3)nc1
11,150 to 152,CCOC(=O)C=Cc1cc(OC)ccc1-c1ccc(-c2ccc(OC)c(Cl)c2)c(C=O)c1
12,75 to 76,CNc1ccc(-c2c[nH]cn2)cc1
13,250 to 252,COc1cccc(-n2c(-c3sc(Nc4ccccc4)nc3-c3ccccc3)nc3ccccc3c2=O)c1
14,166 to 168,O=C(NC1CCCCC1)Oc1ccc(Oc2ccccc2)cc1
15,196 to 197,COc1cc2c(cc1OC)CN(c1nc(N)nc(Cl)n1)CC2
16,114 to 115,COc1cc(/C=C/c2ccc(N(C)C)cc2)cc(OC)c1OC
17,131 to 133,O=Cc1cncn1-c1ccc(F)cc1
18,99 to 100,CCCCOc1ccc(S(=O)(=O)N2CCC(NCc3ccccc3)C2)cc1 (stereo not given)
19,242,Cc1ccc(-c2cc(C(=O)/C=C/c3ccc(C(=O)O)cc3)cc3c2C(C)(C)CCC3(C)C)cc1
